Here are results for one substance from paper PMC2667487, “Cellular localization of kinin B1 receptor in the spinal cord of streptozotocin-diabetic rats with a fluorescent [N^α-Bodipy]-des-Arg^9-bradykinin” (Journal of Neuroinflammation, 2009).

Assay [1] deals with B1R in primary microglial cells. Briefly: B1R induction and BdABK labeling in primary cultured microglial cells. In kind it is cell-based, rat. Particulars: 300 nM BK, 24 h. The procedure: Mixed glial cultures were prepared following the protocol of McCarthy and de Vellis with some modifications. Briefly, forebrains were dissected out from one litter of 2-day-old Sprague-Dawley rat pups and the meninges were stripped off before enzymatic and mechanical dissociation. For enzymatic dissociation, HBSS containing 0.25% trypsin (Gibco 15090-046) was used. The tissue-trypsin suspension was incubated for 20 min at 37°C in a water bath with intermittent shaking. After the waiting time for the trypsin digestion is over we added to the tissue-trypsin suspension a mixture of prewarmed DMEM/Dnase I (Sigma DN-25, Dnase I final concentration 0. 25 mg/ml) followed by an incubation for 4 min at 37°C. The resulting suspension was dispersed by a mild mechanical trituration which consisted in the passage through 18-, 22- and 25- gauge needles. This cell suspension was then filtred through 70 μm strainer (BD Falcon 352350). After extensive washs in prewarmed HBSS, these dissociated cells were resuspended and plated in 75-cm^2 Falcon tissue-culture flasks (BD Biosciences) previously coated with 10 μg/ml poly-D-lysine (PDL). These mixed cells were growing at 37°C and 5% CO2 in DMEM (Gibco) supplemented with 10% FBS, penicillin (100 units/ml), and streptomycin ([…]). The media was changed every 2 or 3 days thereafter. […]

The test system is the same in assay [2]. The settings on record: cited from earlier work. An excerpt: (§1) NF-κB upregulates B1R upon binding to its nuclear promoter.
The test system of assay [3] is B2 receptors. The settings on record: via B2 receptors, protein kinase C; cited from earlier work.
Source text: as §1

As for “BK: bradykinin, preferential B2R agonist; used to induce B1R in microglia (RPPGFSPFR; Bradykinin; UniProt P01042 381-389, looked up)”, in assay [1], the “induction of B1R in primary microglial cells” value is “B1R was induced”. Further, the “B1R expression in cultured rat microglia exposed to BK” value in assay [2] is on record as “B1R can be expressed in cultured rat microglia”. Further, the “intracellular calcium and NF-κB activation” value in assay [3] was “induces elevation of intracellular calcium leading to the phosphorylation and activation of NF-κB”.
